Entries after “also recorded” stand apart in the source; their conditions may differ. Like-named read-outs stand apart in the source and are kept apart here.
Key:
[1] = population PK analysis; cited from earlier work
[2] = cellular assays; cited from earlier work
[3] = patients treated at 56 mg/m^2; cited from earlier work
[4] = 80 mg/m^2 dose level, daily x5, cited from earlier work; for Cmax: read-out: plasma Cmax
[5] = test system: solid tumors and lymphomas; conditions: 3 weeks out of a 4 week cycle, cited from earlier work
[6] = test system: lung cancer cells with wild-type Rb; conditions: cited from earlier work
breast cancer cells = conditions: cited from earlier work
MEXF 276L melanoma cells = conditions: cited from earlier work
metastatic melanoma = conditions: cited from earlier work
[7] = test system: SKBr3 breast cancer cells; conditions: cited from earlier work
[8] = Dose limiting toxicity and adverse events in trial of 17-AAG with trastuzumab; conditions: 450 mg/m^2/single administration of 17-AAG once weekly for four weeks
Description: The invention was tested in an open-label, dose escalating clinical trial. […] Metastatic disease, if present, was not progressing so as to required palliative treatment. […] Patients were assessed in 4-week cycles.
Dosing. […] If two or more of six evaluable patients entered in a cohort experienced a DLT then the MTD was exceeded; if the previous dose level produced DLT in no more than 1 out of 6 patients, then this dose was considered the MTD and was used for all subsequent patients entered in the phase 2 portion of the study.

solid tumors = conditions: cited from earlier work
advanced solid tumors = conditions: cited from earlier work
[9] = cited from earlier work
[10] = test system: colon adenocarcinoma cells; conditions: cited from earlier work
leukemia cells = conditions: cited from earlier work
NSCLC cells = conditions: cited from earlier work
clinical = conditions: human, in vivo; for AUC / AUC(0-t) / Tmax / Cmax: iv; for Cmax: first dose
Description: Patients were assessed in 4-week cycles.
PK assessment. PK sampling was obtained during the first treatment cycle only. […] Plasma concentrations were determined by a validated liquid chromatography-mass spectrometry (LC-MS) method.
For patients with a body surface area greater than 2.4 m^2, dosing was calculated using a maximum BSA of 2.4 m^2.
Plasma samples from some of the patients were assayed using a validated good laboratory practice (GLP) compliant analytical method.
All of the patients' plasma samples were analyzed.

[11] = free base form; cited from earlier work
[12] = Cohort 1, 17-AAG 225 mg/m^2 IV over 120 min with trastuzumab, first dose, mean
[13] = Cohort 2, 17-AAG 300 mg/m^2 IV over 120 min with trastuzumab, first dose, mean
[14] = Cohort 3, 17-AAG 375 mg/m^2 IV over 120 min with trastuzumab, first dose, mean
[15] = Cohort 4, 17-AAG 450 mg/m^2 IV over 120 min with trastuzumab, first dose, mean
[16] = All cohorts combined (225-450 mg/m^2), mean
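Wherever AUCext is given: Open-label dose-escalation clinical trial, plasma drug levels measured by validated LC-MS, sampling during the first 4-week treatment cycle only.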
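Wherever AUCtotal is given: Open-label dose-escalation clinical trial, plasma drug levels measured by validated LC-MS, sampling during the first 4-week treatment cycle only.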
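Wherever MRT is given: Open-label dose-escalation clinical trial, plasma drug levels measured by validated LC-MS, sampling during the first 4-week treatment cycle only.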
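Wherever Vss is given: Open-label dose-escalation clinical trial, plasma drug levels measured by validated LC-MS, sampling during the first 4-week treatment cycle only.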

## CO[C@H]1/C=C\C=C(/C)C(=O)NC2=CC(=O)C(N)=C(C[C@@H](C)C[C@H](OC)[C@H](O)[C@@H](C)/C=C(\C)[C@@H]1OC(N)=O)C2=O [17-AG, 17-amino-17-demethoxygeldanamycin]
[1]
  Clearance: 21.3 L/h
[2]
  activity relative to 17-AAG: equipotent; also recorded: activity approximately equal to that of 17-AAG
[3]
  Clearance: 30.8 L/h/m^2
  Vz: 203 L/m^2
  average AUC: 5,558 nM*h
  average t1/2: 8.6 h
[4]
  t1/2: 1.75 h
  Cmax: 607 nM

## C=CCNC1=C2C[C@@H](C)C[C@H](OC)[C@H](O)[C@@H](C)/C=C(\C)[C@H](OC(N)=O)[C@@H](OC)/C=C\C=C(/C)C(=O)NC(=CC1=O)C2=O [17-AAG, 17-allylamino-17-demethoxygeldanamycin]
[5]; weekly 17-AAG
  MTD: 308 mg/m^2
[5]; weekly
  objective tumor responses: No objective tumor responses have been observed to date in this trial
[6]
  effect of exposure on client proteins: degradation of cdk4, cdk6, and cyclin E
Breast cancer cells
  effect of exposure on client proteins: depletion of steroid receptors
MEXF 276L melanoma cells
  effect of exposure on client proteins: depletion of Hsp90 and down-regulation of Raf-1 and erbB2
Metastatic melanoma; once weekly
  complete or partial responses: No complete or partial responses were recorded
Metastatic melanoma; once weekly, elevation of AST
  dose at which dose limiting toxicity was observed: 450 mg/m^2/week
Metastatic melanoma; patients treated at 320-450 mg/m^2
  stable disease: two showed radiologically documented long term stable disease
[7]
  effect of exposure on client proteins: depletion of erbB2 and destabilization of Raf-1 and mutant p53
[8]
  DLT: without reaching DLT in any treated patient
All cohorts combined, Max
  MRT: 11.44 h
  Vss: 308.74 L/m^2
  t1/2: 11.42 h
All cohorts combined, Min
  MRT: 2.44 h
  t1/2: 1.33 h
[12]
  AUCext: 7.1%
  AUCtotal: 8,539.3 ng/mL*h
  AUMCtotal: 29,168 ng/mL*(h^2)
  Cmax: 3,257.5 ng/mL
  Lz: 0.3804 h⁻¹
[13]
  AUCext: 1.6%
  AUCtotal: 16,163 ng/mL*h
  AUMCtotal: 107,072 ng/mL*(h^2)
  Lz: 0.1637 h⁻¹
[14]
  AUCext: 2.2%
  AUCtotal: 27,983 ng/mL*h
  AUMCtotal: 124,179 ng/mL*(h^2)
  Lz: 0.1996 h⁻¹
[15]
  AUCext: 2.8%
  AUCtotal: 28,425 ng/mL*h
  AUMCtotal: 65,954 ng/mL*(h^2)
  Lz: 0.2037 h⁻¹
Solid tumors; daily for 5 days every 3 weeks
  dose limiting toxicity: dose limiting reversible hepatotoxicity
  maximum tolerated dose (MTD) and recommended Phase 2 dose: 40 mg/m^2
Solid tumors; doses up to 110 mg/m^2 daily for 5 days every 3 weeks
  objective tumor responses: No objective tumor responses were observed
[3]
  Clearance: 19.9 L/h/m^2
  Vz: 93 L/m^2
  average AUC: 6,708 nM*h
Advanced solid tumors; weekly for 3 out of every 4 weeks
  dose at which nausea and vomiting secondary to pancreatitis and grade 3 fatigue were observed: 395 mg/m^2
Advanced solid tumors; weekly or twice weekly schedules
  objective tumor responses: No objective tumor responses have been observed in this trial to date
[9]; dose levels studied
  relation between dose and area under the curve (AUC): linear correlation
[9]; highest dose level 450 mg/m^2
  mean volume of distribution: 142.6 L
[10]
  effect of exposure on client proteins: depletion of Raf-1, c-Akt, and Erk1/2
Leukemia cells
  effect of exposure on client proteins: down-regulation of intracellular Bcr-Abl and c-Raf proteins and reduction of Akt kinase activity
NSCLC cells
  effect of exposure on client proteins: depletion of erbB1 and erbB2 levels
clinical; [16]
  Clearance: 536 mL/min
  MRT: 4.71 h
clinical; All cohorts combined, Median
  Clearance: 497 mL/min
  MRT: 4.26 h
clinical; Vss, All cohorts combined (225-450 mg/m^2), mean
  Vd: 147 ± 94.8 L
clinical; Vss, All cohorts combined, Median
  Vd: 128 L
clinical; Vz, All cohorts combined (225-450 mg/m^2), mean
  Vd: 187 ± 156 L
clinical; Vz, All cohorts combined, Median
  Vd: 146 L
clinical; 225 mg/m2
  AUC: 588 ng·h/mL
  AUC(0-t): 7950 ng·h/mL
  Tmax: 1.8 h
clinical; 225 mg/m2, Cmax, Cohort 1, 17-AAG 225 mg/m^2 IV over 120 min with trastuzumab, mean
  Cmax: 3260 ng/mL
clinical; 300 mg/m2
  AUC: 281 ng·h/mL
  AUC(0-t): 15900 ng·h/mL
  Tmax: 1.9 h
clinical; 300 mg/m2, Cmax, Cohort 2, 17-AAG 300 mg/m^2 IV over 120 min with trastuzumab, mean
  Cmax: 4050 ng/mL
clinical; 375 mg/m2
  AUC: 490 ng·h/mL
  AUC(0-t): 27500 ng·h/mL
  Tmax: 1.9 h
clinical; 375 mg/m2, Cmax, Cohort 3, 17-AAG 375 mg/m^2 IV over 120 min with trastuzumab, mean
  Cmax: 9400 ng/mL
clinical; 450 mg/m2
  AUC: 558 ng·h/mL
  AUC(0-t): 27900 ng·h/mL
  Tmax: 2 h
clinical; 450 mg/m2, Cmax, Cohort 4, 17-AAG 450 mg/m^2 IV over 120 min with trastuzumab, mean
  Cmax: 8110 ng/mL
clinical; t1/2, All cohorts combined (225-450 mg/m^2), mean
  half-life: 4.13 ± 2.48 h
clinical; t1/2, All cohorts combined, Median
  half-life: 3.42 h
[4]
  Cmax: 2700 nM

## C=CCNc1c(O)cc2c(O)c1C[C@@H](C)C[C@H](OC)[C@H](O)[C@@H](C)/C=C(\C)[C@H](OC(N)=O)[C@@H](OC)/C=C\C=C(/C)C(=O)N2 [17-AAGH2, 17-allylamino-18,21-dihydro-17-demethoxygeldanamycin]
[11]
  stability to air oxidation: air oxidizes readily
